Measurements taken from ChEMBL document CHEMBL1142734, “Biological properties of D- and L-1-deoxyazasugars” (J Med Chem, 2005).

Legend:
[1] = biological target: T1, Beta-galactosidase (Bos taurus) (UniProt Q58D55); assay: Percent inhibition of beta-galactosidase of bovine liver at 1000 uM
T1 sequence (whole entry): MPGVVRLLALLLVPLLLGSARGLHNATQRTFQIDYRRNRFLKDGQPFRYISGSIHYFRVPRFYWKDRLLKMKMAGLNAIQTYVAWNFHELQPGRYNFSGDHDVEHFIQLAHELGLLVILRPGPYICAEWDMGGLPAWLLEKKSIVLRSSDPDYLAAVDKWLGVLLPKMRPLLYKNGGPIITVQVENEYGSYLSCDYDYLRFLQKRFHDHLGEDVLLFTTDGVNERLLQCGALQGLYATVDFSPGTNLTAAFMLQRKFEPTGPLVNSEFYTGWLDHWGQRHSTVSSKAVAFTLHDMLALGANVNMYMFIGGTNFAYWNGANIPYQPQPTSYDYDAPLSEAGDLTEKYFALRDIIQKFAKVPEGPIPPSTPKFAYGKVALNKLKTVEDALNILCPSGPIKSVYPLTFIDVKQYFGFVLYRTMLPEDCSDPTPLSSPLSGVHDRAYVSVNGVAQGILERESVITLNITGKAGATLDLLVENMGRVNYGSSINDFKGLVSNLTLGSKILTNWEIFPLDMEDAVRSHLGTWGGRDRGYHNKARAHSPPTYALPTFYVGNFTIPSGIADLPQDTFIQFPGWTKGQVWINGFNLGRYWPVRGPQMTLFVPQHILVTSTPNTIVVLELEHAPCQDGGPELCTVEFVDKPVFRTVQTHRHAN

[2] = biological target: T2, Beta-galactosidase (Rattus norvegicus) (UniProt D3ZUM4); assay: Percent inhibition of beta-galactosidase of rat epididymis at 1000 uM
T2 sequence (whole entry): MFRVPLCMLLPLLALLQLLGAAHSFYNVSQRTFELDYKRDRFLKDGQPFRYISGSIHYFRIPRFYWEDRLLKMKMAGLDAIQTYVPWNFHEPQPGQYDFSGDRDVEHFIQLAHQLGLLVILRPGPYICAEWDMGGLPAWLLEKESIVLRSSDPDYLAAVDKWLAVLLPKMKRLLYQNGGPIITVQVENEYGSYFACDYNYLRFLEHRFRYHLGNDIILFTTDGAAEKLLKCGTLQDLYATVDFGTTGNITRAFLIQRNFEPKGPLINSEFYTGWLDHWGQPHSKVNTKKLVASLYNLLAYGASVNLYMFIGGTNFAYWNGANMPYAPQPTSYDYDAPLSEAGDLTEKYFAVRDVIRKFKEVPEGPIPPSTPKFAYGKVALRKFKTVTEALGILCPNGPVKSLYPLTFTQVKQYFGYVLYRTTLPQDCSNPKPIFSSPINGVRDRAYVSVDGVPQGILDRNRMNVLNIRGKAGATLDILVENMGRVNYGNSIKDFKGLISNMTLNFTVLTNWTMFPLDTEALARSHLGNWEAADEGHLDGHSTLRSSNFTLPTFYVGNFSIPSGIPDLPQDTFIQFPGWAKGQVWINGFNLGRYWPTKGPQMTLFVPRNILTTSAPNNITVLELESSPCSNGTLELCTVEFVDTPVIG

[3] = biological target: Alpha-galactosidase (Coffea arabica) (UniProt Q5DUH8); conditions: 1000 uM
Alpha-galactosidase (Coffea arabica), sequence (Q5DUH8 as listed by the source): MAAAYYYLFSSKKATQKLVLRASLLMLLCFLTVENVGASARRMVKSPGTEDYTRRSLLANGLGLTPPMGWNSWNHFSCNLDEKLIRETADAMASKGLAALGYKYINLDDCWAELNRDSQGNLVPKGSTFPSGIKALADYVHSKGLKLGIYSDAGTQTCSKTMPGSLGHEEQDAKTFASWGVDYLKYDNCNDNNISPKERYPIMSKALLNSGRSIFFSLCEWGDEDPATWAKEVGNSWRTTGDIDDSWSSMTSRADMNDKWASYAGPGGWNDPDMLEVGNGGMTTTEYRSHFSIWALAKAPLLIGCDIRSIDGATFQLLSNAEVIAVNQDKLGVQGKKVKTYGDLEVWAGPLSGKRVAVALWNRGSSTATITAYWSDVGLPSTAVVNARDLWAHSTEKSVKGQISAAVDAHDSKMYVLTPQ

[4] = biological target: T3, Tissue alpha-L-fucosidase (Bos taurus, UniProt Q2KIM0); assay: Inhibitory concentration against alpha-L-fucosidase of bovine epididymis
T3 sequence (Q2KIM0 whole entry): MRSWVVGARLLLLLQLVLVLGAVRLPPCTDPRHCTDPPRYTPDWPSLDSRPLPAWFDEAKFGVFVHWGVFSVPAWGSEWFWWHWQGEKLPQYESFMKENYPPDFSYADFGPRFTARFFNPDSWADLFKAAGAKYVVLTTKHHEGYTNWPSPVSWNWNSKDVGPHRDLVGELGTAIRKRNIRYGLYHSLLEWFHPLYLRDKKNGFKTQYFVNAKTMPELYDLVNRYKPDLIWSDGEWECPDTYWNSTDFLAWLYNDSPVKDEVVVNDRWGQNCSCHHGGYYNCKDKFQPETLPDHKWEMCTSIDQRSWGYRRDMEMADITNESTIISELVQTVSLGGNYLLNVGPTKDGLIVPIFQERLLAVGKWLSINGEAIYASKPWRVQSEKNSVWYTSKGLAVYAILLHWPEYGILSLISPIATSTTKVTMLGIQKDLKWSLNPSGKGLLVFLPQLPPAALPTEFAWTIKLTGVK

[5] = biological target: T3, Tissue alpha-L-fucosidase; assay: Ki value against bovine alpha-L-fucosidase
[6] = biological target: T4, Cytosolic beta-glucosidase (Homo sapiens, UniProt Q9H227); assay: Inhibitory concentration against beta-glucosidase
T4 sequence (Q9H227 whole entry): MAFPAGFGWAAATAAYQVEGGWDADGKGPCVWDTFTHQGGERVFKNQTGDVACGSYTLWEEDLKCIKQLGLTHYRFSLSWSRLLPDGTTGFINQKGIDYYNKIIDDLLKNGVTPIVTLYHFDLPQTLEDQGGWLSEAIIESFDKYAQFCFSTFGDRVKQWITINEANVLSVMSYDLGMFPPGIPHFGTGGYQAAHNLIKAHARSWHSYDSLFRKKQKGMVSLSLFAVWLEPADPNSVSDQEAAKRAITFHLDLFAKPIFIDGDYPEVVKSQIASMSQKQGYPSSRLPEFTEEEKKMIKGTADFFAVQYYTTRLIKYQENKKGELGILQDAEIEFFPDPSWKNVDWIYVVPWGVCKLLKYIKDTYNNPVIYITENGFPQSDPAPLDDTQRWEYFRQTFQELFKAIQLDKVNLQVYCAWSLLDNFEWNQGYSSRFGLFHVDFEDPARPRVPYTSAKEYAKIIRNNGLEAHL

[7] = biological target: T2, Beta-galactosidase (Rattus norvegicus); assay: Percent inhibition of beta galactosidase of rat epididymis at 1000 uM
[8] = biological target: T4, Cytosolic beta-glucosidase; assay: Inhibitory concentration against human beta-glucosidase

| Compound | inhibition [1] [%] | inhibition [2] [%] | inhibition [3] [%] | further results |
| --- | --- | --- | --- | --- |
| OC[C@H]1NC[C@H](O)[C@H](O)[C@@H]1O | < 50 | < 50 |  |  |
| OC[C@H]1NC[C@H](O)[C@H](O)[C@H]1O | < 50 | < 50 |  |  |
| OC[C@@H]1NC[C@H](O)[C@@H](O)[C@@H]1O | < 50 | < 50 | < 50 |  |
| OC[C@H]1NC[C@@H](O)[C@@H](O)[C@@H]1O [DEOXYMANNOJIRIMYCIN] | < 50 | < 50 | < 50 | IC50 [4]: 39 µM; Ki [5]: 4.7 µM |
| OC[C@@H]1NC[C@H](O)[C@H](O)[C@H]1O | < 50 | < 50 | < 50 |  |
| OC[C@@H]1NC[C@@H](O)[C@@H](O)[C@H]1O | < 50 | < 50 |  |  |
| OC[C@@H]1NC[C@@H](O)[C@H](O)[C@H]1O |  |  | < 50 | IC50 [6]: 980 µM; inhibition [7]: < 50% |
| OC[C@@H]1NC[C@@H](O)[C@H](O)[C@@H]1O |  |  |  | Ki [5]: 0.08 µM |
| OC[C@H]1NC[C@H](O)[C@@H](O)[C@@H]1O [DUVOGLUSTAT] |  |  |  | IC50 [8]: 240 µM; IC50 [6]: 80 µM; inhibition [7]: < 50% |
| OC[C@H]1NC[C@@H](O)[C@H](O)[C@H]1O |  | < 50 |  | IC50 [8]: 66 µM; IC50 [6]: 60 µM |
| OC[C@@H]1NC[C@@H](O)[C@@H](O)[C@@H]1O | < 50 | < 50 | < 50 | IC50 [4]: 156 µM; Ki [5]: 14 µM |
| OC[C@H]1NC[C@H](O)[C@@H](O)[C@H]1O | < 50 |  |  |  |
